Data as given in US11800867B2, “Methods of repelling biting arthropods, reducing pathogen spread and treating arthropod infestation” (priority 2016, dated 2023).
Several values for one entry are separate records, joined by “and”; a condition that tells them apart may be missing. Equal entries are not always repeated. Entries after “also recorded” stand apart in the source; their conditions may differ.

Legend:
Type in all cases: in vivo
[1] = test system: Yellow Fever mosquito (Aedes aegypti); assay: Treated filter paper knockdown (KD) and mortality trial (Example 4)
Method: (§1) A laboratory trial was conducted to assess the efficacy of nootkatone applied to filter paper against aphids (Schizaphis gramium), dust mites (Dermatophagoides sp.), termites (Reticulitermes flavipes), deer ticks (Ixodes scapularis), biting midges (Culicoides sp.), fire ants (Solenopsis invicta), and mosquitoes (Aedes aegypti and Culex), in terms of knockdown (KD) and mortality. One concentration (1% in ethanol) of nootkatone was assessed for most species, but three concentrations (0.25%, 0.5%, and 1% in ethanol) were assessed for mosquitoes. A negative control group, consisting of filter paper treated with ethanol, was also assessed for comparison purposes for each species.
(§2) Test systems were introduced to treated filter paper, allowed to dry, and then introduced into treatment chamber, where treated arthropods were monitored at intervals up to 72 hours. If 100% mortality was obtained prior to 72 hours, the individual study was halted.
(§3) Midges and mosquitoes—5 replicates of 10 insects per treatment were tested. Inverted 10 ounce (295 ml) clear plastic cups with a 0.5 inch (1.27 cm) hole burned into the center of the bottom, and with the sides coated with Fluon® was used at the treatment containers. The bottoms of the containers consisted of Petri dish lids 3.54 inches (9.0 cm) in diameter lined with a treated filter paper circle the same diameter. The cup was placed over the filter paper in the lid and both were secured in place using 2 rubber bands. The insects were introduced through the hole in the cup, and a plastic disc was placed over the opening to prevent escapes.
(§4) Readings were discontinued if treated mortality reaches […], or control mortality exceeds 20%.

[2] = test system: Southern house mosquito (Culex); assay: as above
Method: as §1, §2, §3, §4

Aedes aegypti mosquitoes = assay: Choice design repellency test, treated collagen membrane-covered wells filled with warm blood (Example 1); conditions: 1% nootkatone compositions (ethanol and acetone based); probing recorded during 20 min
Method: In the following example, the effectiveness of 1% nootkatone compositions in repelling mosquitoes was determined in comparison with DEET in a choice design test.
Compositions of 1% nootkatone were formulated in either ethanol or acetone and coated onto collagen membrane-covered wells filled with warm blood.
Two hundred and fifty female mosquitoes aged 4-8 days were sucrose deprived for 18 hr and then introduced to the collagen membrane-covered wells. Mosquito probing of the treated collagen membranes was recorded every 2 min during a 20 min period.
Five replicates were performed. A 20% DEET composition was used as a positive control and an ethanol only solution served as a negative control.

[3] = Nootkatone 0.25% in ethanol on filter paper, 30 minutes post introduction
[4] = Nootkatone 0.25% in ethanol on filter paper, 1 hour post introduction
[5] = Nootkatone 0.25% in ethanol on filter paper, 4 hours post introduction
[6] = Nootkatone 0.25% in ethanol on filter paper, 8 hours post introduction
[7] = Nootkatone 0.25% in ethanol on filter paper, 24 hours post introduction
[8] = Nootkatone 0.25% in ethanol on filter paper, 48 hours post introduction
[9] = Nootkatone 0.25% in ethanol on filter paper, 72 hours post introduction
[10] = Nootkatone 0.5% in ethanol on filter paper, 30 minutes post introduction
[11] = Nootkatone 0.5% in ethanol on filter paper, 1 hour post introduction
[12] = Nootkatone 0.5% in ethanol on filter paper, 4 hours post introduction
[13] = Nootkatone 0.5% in ethanol on filter paper, 8 hours post introduction
[14] = Nootkatone 0.5% in ethanol on filter paper, 24 hours post introduction
[15] = Nootkatone 0.5% in ethanol on filter paper, 48 hours post introduction
[16] = Nootkatone 0.5% in ethanol on filter paper, 72 hours post introduction
[17] = Nootkatone 1% in ethanol on filter paper, 30 minutes post introduction
[18] = Nootkatone 1% in ethanol on filter paper, 1 hour post introduction
[19] = Nootkatone 1% in ethanol on filter paper, 4 hours post introduction
[20] = Nootkatone 1% in ethanol on filter paper, 8 hours post introduction
[21] = Nootkatone 1% in ethanol on filter paper, 24 hours post introduction
[22] = Nootkatone 1% in ethanol on filter paper, 48 hours post introduction
[23] = Nootkatone 1% in ethanol on filter paper, 72 hours post introduction

Question: Which “Means Affected” value [1, 3] does the source give for `C=C(C)[C@@H]1CCC2=CC(=O)C[C@@H](C)[C@]2(C)C1` [Nootkatone, nootkatone] here?
Answer: 17.8%

Question: And the “Means Dead” value [1, 3]?
Answer: 17.8%

Question: What about the “Means KD” value [1, 3] of the same compound?
Answer: 0.0%

Question: And the “Means Affected” value [1, 4]?
Answer: 20.0%

Question: What about the “Means Dead” value [1, 4] of the same compound?
Answer: 20.0%

Question: And the “Means KD” value [1, 4]?
Answer: 0.0%

Question: And the “Means Affected” value [1, 5]?
Answer: 20.0%

Question: What about the “Means Dead” value [1, 5] of the same compound?
Answer: 20.0%

Question: And the “Means KD” value [1, 5]?
Answer: 0.0%

Question: And the “Means Affected” value [1, 6]?
Answer: 17.8%

Question: And the “Means Dead” value [1, 6]?
Answer: 15.6%

Question: And the “Means KD” value [1, 6]?
Answer: 2.2%

Question: And the “Means Affected” value [1, 7]?
Answer: 17.8%

Question: And the “Means Dead” value [1, 7]?
Answer: 13.3%

Question: And the “Means KD” value [1, 7]?
Answer: 4.4%

Question: And the “Means Affected” value [1, 8]?
Answer: 17.6%

Question: What about the “Means Dead” value [1, 8] of the same compound?
Answer: 15.6%

Question: And the “Means KD” value [1, 8]?
Answer: 2.0%

Question: What about the “Means Affected” value [1, 9] of the same compound?
Answer: 26.0%

Question: What about the “Means Dead” value [1, 9] of the same compound?
Answer: 17.6%

Question: What about the “Means KD” value [1, 9] of the same compound?
Answer: 8.4%

Question: What about the “Means Affected” value [1, 10] of the same compound?
Answer: 0.0%

Question: And the “Means Dead” value [1, 10]?
Answer: 0.0%

Question: And the “Means KD” value [1, 10]?
Answer: 0.0%

Question: What about the “Means Affected” value [1, 11] of the same compound?
Answer: 0.0%

Question: And the “Means Dead” value [1, 11]?
Answer: 0.0%

Question: And the “Means KD” value [1, 11]?
Answer: 0.0%

Question: And the “Means Affected” value [1, 12]?
Answer: 5.3%

Question: And the “Means Dead” value [1, 12]?
Answer: 0.0%

Question: And the “Means KD” value [1, 12]?
Answer: 5.3%

Question: And the “Means Affected” value [1, 13]?
Answer: 29.9%

Question: What about the “Means Dead” value [1, 13] of the same compound?
Answer: 0.0%

Question: What about the “Means KD” value [1, 13] of the same compound?
Answer: 29.9%

Question: What about the “Means Affected” value [1, 14] of the same compound?
Answer: 83.1%

Question: And the “Means Dead” value [1, 14]?
Answer: 22.5%

Question: What about the “Means KD” value [1, 14] of the same compound?
Answer: 60.6%

Question: And the “Means Affected” value [1, 15]?
Answer: 87.1%

Question: And the “Means Dead” value [1, 15]?
Answer: 72.0%

Question: What about the “Means KD” value [1, 15] of the same compound?
Answer: 15.1%

Question: What about the “Means Affected” value [1, 16] of the same compound?
Answer: 100.0%

Question: And the “Means Dead” value [1, 16]?
Answer: 92% and 92.5%

Question: And the “Means KD” value [1, 16]?
Answer: 7.5%

Question: What about the “Means Affected” value [1, 17] of the same compound?
Answer: 0.0%

Question: And the “Means Dead” value [1, 17]?
Answer: 0.0%

Question: And the “Means KD” value [1, 17]?
Answer: 0.0%

Question: And the “Means Affected” value [1, 18]?
Answer: 1.8%

Question: And the “Means Dead” value [1, 18]?
Answer: 0.0%

Question: What about the “Means KD” value [1, 18] of the same compound?
Answer: 1.8%

Question: What about the “Means Affected” value [1, 19] of the same compound?
Answer: 46.9%

Question: What about the “Means Dead” value [1, 19] of the same compound?
Answer: 0.0%

Question: What about the “Means KD” value [1, 19] of the same compound?
Answer: 46.9%

Question: What about the “Means Affected” value [1, 20] of the same compound?
Answer: 80.4%

Question: And the “Means Dead” value [1, 20]?
Answer: 0.0%

Question: What about the “Means KD” value [1, 20] of the same compound?
Answer: 80.4%

Question: And the “Means Affected” value [1, 21]?
Answer: 84.0%

Question: And the “Means Dead” value [1, 21]?
Answer: 65.5%

Question: What about the “Means KD” value [1, 21] of the same compound?
Answer: 18.5%

Question: And the “Means Affected” value [1, 22]?
Answer: 90.0%

Question: And the “Means Dead” value [1, 22]?
Answer: 80.4%

Question: And the “Means KD” value [1, 22]?
Answer: 9.6%

Question: And the “Means Affected” value [1, 23]?
Answer: 94.0%

Question: What about the “Means Dead” value [1, 23] of the same compound?
Answer: 92%

Question: And the “Means KD” value [1, 23]?
Answer: 2.0%

Question: And the “Means Affected” value [2, 3]?
Answer: 24.0%

Question: What about the “Means Dead” value [2, 3] of the same compound?
Answer: 0.0%

Question: And the “Means KD” value [2, 3]?
Answer: 24.0%

Question: And the “Means Affected” value [2, 4]?
Answer: 22.0%

Question: What about the “Means Dead” value [2, 4] of the same compound?
Answer: 0.0%

Question: And the “Means KD” value [2, 4]?
Answer: 22.0%

Question: And the “Means Affected” value [2, 5]?
Answer: 32.2%

Question: And the “Means Dead” value [2, 5]?
Answer: 0.0%

Question: What about the “Means KD” value [2, 5] of the same compound?
Answer: 32.2%

Question: What about the “Means Affected” value [2, 6] of the same compound?
Answer: 18.0%

Question: What about the “Means Dead” value [2, 6] of the same compound?
Answer: 0.0%

Question: And the “Means KD” value [2, 6]?
Answer: 18.0%

Question: What about the “Means Affected” value [2, 7] of the same compound?
Answer: 26.2%

Question: And the “Means Dead” value [2, 7]?
Answer: 12.2%

Question: And the “Means KD” value [2, 7]?
Answer: 14.0%

Question: What about the “Means Affected” value [2, 8] of the same compound?
Answer: 75.6%

Question: What about the “Means Dead” value [2, 8] of the same compound?
Answer: 61.3%

Question: What about the “Means KD” value [2, 8] of the same compound?
Answer: 14.2%

Question: What about the “Means Affected” value [2, 9] of the same compound?
Answer: 76.0%

Question: And the “Means Dead” value [2, 9]?
Answer: 74.0%

Question: And the “Means KD” value [2, 9]?
Answer: 2.0%

Question: And the “Means Affected” value [2, 10]?
Answer: 0.0%

Question: What about the “Means Dead” value [2, 10] of the same compound?
Answer: 0.0%

Question: And the “Means KD” value [2, 10]?
Answer: 0.0%

Question: And the “Means Affected” value [2, 11]?
Answer: 2.5%

Question: And the “Means Dead” value [2, 11]?
Answer: 0.0%

Question: And the “Means KD” value [2, 11]?
Answer: 2.5%

Question: And the “Means Affected” value [2, 12]?
Answer: 4.0%

Question: What about the “Means Dead” value [2, 12] of the same compound?
Answer: 0.0%

Question: What about the “Means KD” value [2, 12] of the same compound?
Answer: 4.0%

Question: And the “Means Affected” value [2, 13]?
Answer: 4.0%

Question: And the “Means Dead” value [2, 13]?
Answer: 0.0%

Question: What about the “Means KD” value [2, 13] of the same compound?
Answer: 4.0%

Question: And the “Means Affected” value [2, 14]?
Answer: 29.0%

Question: What about the “Means Dead” value [2, 14] of the same compound?
Answer: 10.5%

Question: What about the “Means KD” value [2, 14] of the same compound?
Answer: 18.5%

Question: What about the “Means Affected” value [2, 15] of the same compound?
Answer: 72.0%

Question: What about the “Means Dead” value [2, 15] of the same compound?
Answer: 49.0%

Question: And the “Means KD” value [2, 15]?
Answer: 23.0%

Question: And the “Means Affected” value [2, 16]?
Answer: 82.0%

Question: What about the “Means Dead” value [2, 16] of the same compound?
Answer: 82%

Question: And the “Means KD” value [2, 16]?
Answer: 0.0%

Question: And the “Means Affected” value [2, 17]?
Answer: 2.2%

Question: What about the “Means Dead” value [2, 17] of the same compound?
Answer: 0.0%

Question: And the “Means KD” value [2, 17]?
Answer: 2.2%

Question: What about the “Means Affected” value [2, 18] of the same compound?
Answer: 52.2%

Question: And the “Means Dead” value [2, 18]?
Answer: 0.0%

Question: What about the “Means KD” value [2, 18] of the same compound?
Answer: 52.2%

Question: And the “Means Affected” value [2, 19]?
Answer: 83.7%

Question: And the “Means Dead” value [2, 19]?
Answer: 0.0%

Question: And the “Means KD” value [2, 19]?
Answer: 83.7%

Question: And the “Means Affected” value [2, 20]?
Answer: 92.0%

Question: And the “Means Dead” value [2, 20]?
Answer: 13.1%

Question: What about the “Means KD” value [2, 20] of the same compound?
Answer: 78.9%

Question: And the “Means Affected” value [2, 21]?
Answer: 100.0%

Question: And the “Means Dead” value [2, 21]?
Answer: 97.8%

Question: And the “Means KD” value [2, 21]?
Answer: 2.2%

Question: What about the “Means Affected” value [2, 22] of the same compound?
Answer: 100.0%

Question: What about the “Means Dead” value [2, 22] of the same compound?
Answer: 100.0%

Question: What about the “Means KD” value [2, 22] of the same compound?
Answer: 0.0%

Question: And the “Means Affected” value [2, 23]?
Answer: 100.0%

Question: What about the “Means Dead” value [2, 23] of the same compound?
Answer: 100%

Question: What about the “Means KD” value [2, 23] of the same compound?
Answer: 0.0%

Question: And the “Average repellency compared with 20% DEET (FIG. 2)” value (Aedes aegypti mosquitoes)?
Answer: repellency similar to that of 20% DEET; also recorded: comparable repellency
